Experiments:
[1] = tested on: iPSC-derived cardiomyocytes (CMs); assay: Quiescence, cell cycle and TNNT2+ flow cytometry after Torin1 treatment; type: cell-based, human
Description: FIG. 10A provides a schematic of a differentiation protocol, with Torin1 treatment performed for 7 days starting ˜2 days after onset of beating, unless otherwise noted. FIG. 10B provides a western analysis of phospho-S6 and phospho-Akt at baseline and 30 minutes, and 2, 4, 10, 24, and 48 hours after a single treatment of iPSC-derived CMs with Torin1 (200 nM), BJRiPS-CMs. […] Torin1 treatment started on day 9, approximately 2 days after onset of CM beating, BJRiPS-CMs, n=3 per group per time point. […] DMSO, dimethylsulfoxide; IWP-4, inhibitor of Wnt production-4; RI, ROCK (Rho-associated, coiled coil containing protein kinase) inhibitor (Y-27632); RPMI, Roswell Park Memorial Institute 1640 medium.

[2] = tested on: BJRiPS-CMs; assay: qPCR of sarcomere genes and ion channels after Torin1 treatment; type: cell-based, human
Description: FIG. 11A provides qPCR of selected sarcomere genes (MYH6, MYH7, TNNT2, TNNI3) iPSC-derived cardiomyocytes after treatment with Torin1 (10 nM, 50 nM, or 200 nM) or vehicle control (0.02% DMSO) for 7 days starting ˜2 days after onset of beating. n=3 per condition, *p<0.05, ****p<0.001 by two-way ANOVA with Tukey's multiple comparisons test, BJRiPS-CMs. FIG. 11B provides representative of western blot analysis of TNNT2 and TNNI3 after Torin1 treatment for 7 days starting ˜2 days after onset of beating, β-tubulin depicted as loading control, Gibco iPS-CMs. […] FIG. 11D provides representative image of MTF in diastole and systole, with schematic of MTF on side view in diastole and systole. […]
FIG. 13A provides qPCR of selected ion channels (KCNJ2, CACNA1c, RY2, ATP2a2, SCN5a, HCN4) of iPSC-derived cardiomyocytes after treatment with Torin1 (10 nM or 200 nM) or vehicle control (0.02% DMSO) for 7 days starting ˜2 days after onset of beating. n=3 per group, *p<0.05, ****p<0.001 by two-way ANOVA with Tukey's multiple comparisons test, BJRiPS line. FIG. 13B provides flow cytometry analysis of mean fluorescence intensity of Kir2.1 (encoded by KCNJ2) after Torin1 treatment for 7 days starting ˜2 days after onset of beating. n=3 per group, *p<0.01 by unpaired t-test, BJRiPS line. […]

[3] = tested on: iPSC-derived cardiomyocytes; assay: Muscular thin film (MTF) contractility; type: cell-based, human; conditions: Torin1 200 nM for 7 days; muscular thin films
Description: (§1) FIG. 11A provides qPCR of selected sarcomere genes (MYH6, MYH7, TNNT2, TNNI3) iPSC-derived cardiomyocytes after treatment with Torin1 (10 nM, 50 nM, or 200 nM) or vehicle control (0.02% DMSO) for 7 days starting ˜2 days after onset of beating. n=3 per condition, *p<0.05, ****p<0.001 by two-way ANOVA with Tukey's multiple comparisons test, BJRiPS-CMs. FIG. 11B provides representative of western blot analysis of TNNT2 and TNNI3 after Torin1 treatment for 7 days starting ˜2 days after onset of beating, β-tubulin depicted as loading control, Gibco iPS-CMs. […] FIG. 11D provides representative image of MTF in diastole and systole, with schematic of MTF on side view in diastole and systole. FIG. 11E provides representative force versus time plot of muscular thin film (MTF) seeded with iPSC-derived cardiomyocytes treated with Torin1 (200 nM) or vehicle for 7 days starting ˜2 days after onset of beating, BJRiPS-CMs. […] FIG. 11G provides representative immunostained images showing cardiomyocytes treated with or without Torin1 (200 nM×7 days), blue=DAPI, green=alpha-actinin, yellow=F-actin, magenta=TNNT2, BJRiPS-CMs, scale bar=10 μm. […] DMSO, dimethylsulfoxide; TBP, TATA-binding protein.

[4] = tested on: BJRiPS-CMs; assay: Sarcomere length by immunostaining; type: cell-based, human; conditions: Torin1 200 nM×7 days versus control; unpaired t-test; FIG. 11H
Description: as §1

[5] = tested on: BJRiPS-CMs; assay: Seahorse Mito Stress Test oxygen consumption rate; type: cell-based, human; conditions: Torin1 200 nM×7 days; normalized to baseline
Description: FIG. 12A provides a profile of average oxygen consumption rate normalized to baseline versus time as evaluated by the Seahorse Mito Stress Test. Open circles=control (n=70 wells), closed squares=Torin1 (69 wells, 200 nM×7 days; BJRiPS-CMs replated into Seahorse plate for 24-48 hours prior to assay), data from two independent experiments combined. […] FIG. 12F provides qPCR of selected genes associated with fatty acid metabolism (PPARGC1a (PGC1α), CD36, SLC27A1 (FATP1), SLC27A6 (FATP6), and LPIN1) or glucose metabolism (GLUT1, GLUT4, PFK, and PYGM) of BJRiPS-CMs after treatment with Torin1 (10 nM, 50 nM, or 200 nM) or vehicle control (0.02% DMSO) for 7 days starting ˜2 days after onset of beating. *p<0.05, **p<0.01, ***p<0.001, ****p<0.0001 by two-way ANOVA with Tukey's multiple comparison's test, n=3 per group. DMSO, dimethylsulfoxide; FCCP, 2-[2-[4-(trifluoromethoxy)phenyl]hydrazinylidene]-propanedinitrile.

[6] = tested on: BJRiPS-CMs; assay: Mitochondrial polarization (MitoProbe JC-1); type: cell-based, human; conditions: Torin1 200 nM for 7 days
[7] = tested on: UCSD-CMs; assay: FluoVolt action potential profile; type: cell-based, human
Description: FIG. 13A provides qPCR of selected ion channels (KCNJ2, CACNA1c, RY2, ATP2a2, SCN5a, HCN4) of iPSC-derived cardiomyocytes after treatment with Torin1 (10 nM or 200 nM) or vehicle control (0.02% DMSO) for 7 days starting ˜2 days after onset of beating. n=3 per group, *p<0.05, ****p<0.001 by two-way ANOVA with Tukey's multiple comparisons test, BJRiPS line. FIG. 13B provides flow cytometry analysis of mean fluorescence intensity of Kir2.1 (encoded by KCNJ2) after Torin1 treatment for 7 days starting ˜2 days after onset of beating. n=3 per group, *p<0.01 by unpaired t-test, BJRiPS line. […] FIG. 13D provides representative images showing cell segmentation performed automatically by the CyteSeer software. Blue=Hoechst stain, Green=FluoVolt. […] CTD25 (25% duration of the calcium transient, or duration at 25% decline from maximum amplitude), CTD75 (75% duration of the calcium transient, or duration at 75% decline from maximum amplitude), T75-25 (time for voltage to decay from 75% to 25% of maximum). […] For Fluovolt data, control n=531 cells, Torin1 n=315 cells, analysis by unpaired t-test.

[8] = tested on: Gibco iPS-CM; assay: Western blot of p53 after Torin1 treatment; type: cell-based, human; conditions: Torin1 10, 50 or 200 nM for 7 days
Description: (§2) FIG. 14A provides representative western blot of p53, phospho-53, p21 (CDKN1a), GATA4, NKX2.5, and β-tubulin from Gibco iPS-CM lysates treated with 0 (DMSO), 10, 50, or 200 nM Torin1 for 7 days starting ˜2 days after onset of beating. Cells harvested on final day of treatment. FIG. 14B provides cell cycle analysis showing percentage of TNNT2+ BJRiPS-CMs in G0, G1 or S/G2/M phases after treatment with vehicle (DMSO, dimethylsulfoxide), pifithrin-α (10 μM) for 1 week, Torin1 (200 nM) for 7 days or simultaneous treatment with pifithrin-α (10 μM) and Torin1 (200 nM) for 7 days starting ˜2 days after onset of beating. n=3 per group, *p<0.05, **p<0.01, ***p<0.001, ****p<0.0001 by two-way ANOVA with Tukey's multiple comparisons test. FIG. 14C provides representative western blot of p53, TNNI3, p21, and β-tubulin from BJRiPS-derived cardiomyocyte lysates treated with control (DMSO), Torin1 (200 nM), pifithrin-α (10 PM) or Torin1 (200 nM)+pifithrin-α (10 μM) for 7 days beginning ˜2 days after onset of beating. Cells harvested on final day of treatment.

[9] = tested on: PSC-CMs; conditions: inhibition of mTOR signaling during late differentiation; previously suggested; cited from earlier work
[10] = tested on: iPSC-CMs; assay: Flow cytometry of marker expression and live cells in iPSC-CMs treated in 3D culture; type: cell-based, human
Description: The UCSD142i-86-1 cell line was used to generate preliminary data. UCSD142i-86-1 cells were differentiated into cardiomyocytes according to previously published protocols (9) adapted to three-dimensional culture in the laboratory. Two days after onset of beating (around day 9 of differentiation), cardiomyocytes were treated with vehicle (DMSO) or different concentrations of quercetin for different time periods. Cells were harvested for qPCR, western, or flow cytometry at different time points.

[11] = tested on: BJRiPS-CMs; assay: Western blot and densitometry (MDM2, p53, TNNI3) and cell cycle analysis of BJRiPS-derived cardiomyocytes; type: cell-based, human
Description: FIG. 6A provides a schematic showing proposed mechanism of cardiomyocyte maturation. T3, triiodothyronine. […] FIG. 6C provides representative Western blot of MDM2, p53, TNNI3, and β-tubulin from BJRiPS-derived cardiomyocyte lysates treated with control (DMSO), nutlin-3a Å˜24 hours (10 μmol/L), Torin1 Å˜7 days (200 nmol/L), or Torin1 Å˜7 days (200 nmol/L)+nutlin-3a (10 μmol/L) for 24 hours beginning ≈2 days after onset of beating (nutlin-3a was only administered during the first 24 hours of Torin1 treatment). Cells harvested on final day of treatment, BJRiPS-CMs. […] DMSO indicates dimethylsulfoxide; mTOR, mechanistic target of rapamycin; and TNNT2+ BJRiPS-CMs, troponin T2, cardiac type-positive BJ fibroblast-derived RNA-induced pluripotent stem cell-derived cardiomyocytes.
as §2

[12] = tested on: cardiomyocytes; assay: Flow cytometry in 2D culture (TNNT2, MitoTracker Red CMXRos, superoxide signal); type: cell-based, human; conditions: FACS, FIG. 8
Text: FACS N=3/group, MitoTracker Red CMXRos flow cytometry, 1-way ANOVA with Tukey's multiple comparisons test.
Reactive oxygen species may regulate cardiomyocyte maturation. FACS, n=3/group.

[13] = treatment of iPSC-CMs in 3D culture

CCC(=O)N1CCN(c2ccc(-n3c(=O)ccc4cnc5ccc(-c6cnc7ccccc7c6)cc5c43)cc2C(F)(F)F)CC1 [Torin1]
cellular quiescence ([1]; Torin1 for 7 days starting about 2 days after onset of beating): increases | percentage of TNNT2+ CMs out of live cell population ([1]; flow cytometry, Gibco iPS-CMs, one-way ANOVA, FIG. 10D): n.s. | expression selected ion channels ([2]; Torin1 10 nM or 200 nM for 7 days): increases | expression of sarcomere genes (MYH6, MYH7, TNNT2, TNNI3) ([2]; Torin1 10, 50 or 200 nM for 7 days): increases | contractility [3]: enhances | sarcomere length [4]: n.s | oxygen consumption rate [5]: increases | mitochondrial polarization [6]: increases | peak rise time of the action potential profile ([7]; FluoVolt, FIG. 13F): increases | downstroke velocity of the action potential profile ([7]; FluoVolt, FIG. 13G): increases | CTD25 time ([7]; FluoVolt, versus control, unpaired t-test, FIG. 13H): n.s. | plateau phase of the action potential profile ([7]; representative profile versus control, FIG. 13E): more prolonged | p53 expression [8]: increases | cellular quiescence [9]: induces | maturation of cardiomyocytes [9]: enhances

COc1ccc(C2=N[C@@H](c3ccc(Cl)cc3)[C@@H](c3ccc(Cl)cc3)N2C(=O)N2CCNC(=O)C2)c(OC(C)C)c1 [nutlin-3a]
percentage of TNNT2+ iPSC-CMs ([10]; 3D culture, flow cytometry, FIG. 2A): increases | mean fluorescence intensity (MFI) of TNNT2 ([10]; 3D culture, flow cytometry, FIG. 2B): increases | % of TNNI3+ ([10]; 3D culture, flow cytometry, FIG. 2C): increases | mean fluorescence intensity of TNNI3 ([10]; 3D culture, flow cytometry, FIG. 2D): increases | percentage of TNNT2+ iPSC-CMs expressing Kir2.1 ([10]; 3D culture, flow cytometry, FIG. 2E / FIG. 3A): increases | mean fluorescence intensity (MFI) of Kir2.1 ([10]; 3D culture, flow cytometry, FIG. 2F / FIG. 3B): increases | % of p53+ TNNT2+ iPSC-CMs ([10]; 3D culture, flow cytometry, FIG. 2G / FIG. 3C): increases | mean fluorescence intensity of p53 ([10]; 3D culture, flow cytometry, FIG. 3D): increases | expression of Kir2.1 [10, 13]: increases | expression of p53 [10, 13]: increases | TNNI3 expression, effect together with Torin1 ([11]; nutlin-3a 10 μmol/L during first 24 hours of Torin1 200 nmol/L for 7 days): synergistic effect | p53 (Western analysis) ([11]; nutlin-3a 10 μmol/L for 24 hours): upregulation | TNNI3 expression ([11]; nutlin-3a 10 μmol/L for 24 hours, about 2 days after onset of beating, Western densitometry): enhances | mean fluorescence intensity of superoxide signal [12]: increases

— US20250188417A1, “CARDIOMYOCYTES AND COMPOSITIONS AND METHODS FOR PRODUCING THE SAME” (President and Fellows of Harvard College, priority 2021, published 2025)
